Molecules are shown by their SMILES.

Format in all cases: in vivo
In data set [1] the test system is carbohydrate metabolism-modified mice (type 1 diabetes model). Put plainly: insulin tolerance testing (ITT). As to conditions: before and at 2 weeks after STZ, vs water control; for blood glucose level and insulin resistance in insulin tolerance testing (ITT): 20 mM in drinking water. How it is done: (§1) After removing the left kidney of C57BL/6(B6) mice (−2 weeks: −2 w), a group administered Risperidone aqueous solution as a DAO inhibitor in drinking water (n=3 to 7) and a group administered water as drinking water (n=9 to 11) as a control were administered streptozotocin (STZ) at 50 mg/kg (0) weeks) to create carbohydrate metabolism-modified model mice, and insulin tolerance testing (−1 weeks, 2 weeks), intra-peritoneal glucose tolerance testing (−1 weeks), casual blood glucose measurement (−1 weeks, 2 weeks, 6 weeks) and fasting blood glucose measurement (−1 weeks, 2 weeks) were conducted as appropriate.
(§2) After removing the left kidney of C57BL/6(B6) mice (−2 weeks: −2 w), a group administered an aqueous solution of 20 mM D-alanine (n=5 to 8), 80 mM D-alanine (n=3 to 4), 20 mM D-serine (n=6 to 7) or 80 mM D-serine (n=4) as drinking water, and a group administered water as drinking water as a control (n=8) were administered streptozotocin (STZ) at 50 mg/kg (0 weeks) to create carbohydrate metabolism-modified model mice, and insulin tolerance testing (−1 weeks, 2 weeks), casual blood glucose measurement (0 weeks to 18 weeks), fasting blood glucose measurement (0 weeks to 16 weeks) and systolic/diastolic blood pressure measurement (−1 weeks to 18 weeks) were conducted as appropriate.

For data set [2] the test system is unchanged. Description: casual blood glucose measurement. As to conditions: for increase in casual blood glucose level: 20 mM in drinking water on D-amino acid-free diet, after STZ (2 weeks); for casual blood glucose level: vs water control.
Experimental: (§3) After removing the left kidney of C57BL/6(B6) mice (−2 weeks: −2 w), a D-amino acid-eliminated diet (D-amino acid-free diet, D-fd) was provided, and groups administered aqueous solution of 20 mM D-alanine (n=5), 20 mM D-serine (n=5), 20 mM D-proline (n=5), 20 mM D-leucine (n=5) or water (n=6 to 14) in drinking water, and a group given normal diet and water as a control (n=5), were administered streptozotocin (STZ) at 50 mg/kg (0 weeks) to create carbohydrate metabolism-modified model mice, and blood insulin measurement (−1 weeks, 3 weeks), casual blood glucose measurement (−1 weeks, 2 weeks), fasting blood glucose measurement (−1 weeks, 3 weeks) and measurement of insulin and glucagon in pancreatic islets of Langerhans by antibody staining, were conducted as appropriate.
Data set [3] shares this test system. Put plainly: fasting blood glucose measurement. As to conditions: vs water control.
Experimental: as §3
The test system is the same in data set [4]. Put plainly: systolic/diastolic blood pressure measurement. As to conditions: 80 mM in drinking water; 10 weeks after STZ; vs B6 group. How it is done:
as §2

The subject of data set [5] is db/db mice (type 2 diabetes model). Put plainly: casual blood glucose in db/db mice. As to conditions: 20 mM in drinking water, 5 to 18 weeks, vs control group.
Data set [6] concerns carbohydrate metabolism-modified mice (type 1 diabetes model). Put plainly: death during D-amino acid administration in drinking water. As to conditions: 80 mM in drinking water (n=4); within 18 weeks. How it is done: as §2
Data set [7] has the same test system. Description: intra-peritoneal glucose tolerance testing (IPGTT). The note with it: Risperidone in drinking water; B6 mice, -1 weeks; vs water control. How it is done:
as §1

Where [8] appears, read: 20 mM or 80 mM in drinking water, dose-dependent, after STZ (0 to 18 weeks).
Where [9] appears, read: 20 mM or 80 mM in drinking water, dose-dependent, after STZ (0 to 16 weeks).

On to `C[C@@H](N)C(=O)O` [D-alanine], for which the “blood glucose level and insulin resistance in insulin tolerance testing (ITT)” value in data set [1] is “lower blood glucose levels and lower insulin resistance compared to the control group”. Further, the “increase in casual blood glucose level” value in data set [2] is “suppressed”. In addition, in data set [2] (setting [8]), the “casual blood glucose level” value is given as “remained at a low levels”. Moreover, the “fasting blood glucose level” value in data set [3] (setting [9]) is given as “remained at a low levels”. Besides, in data set [4], the diastolic pressure entry is reported as “lowered” and the systolic pressure entry is “lowered”. Besides, the “casual blood glucose level” value in data set [5] was “lower levels”.

As for `CC(C)C[C@@H](N)C(=O)O` [D-leucine], in data set [2], the “increase in casual blood glucose level” value is listed as “suppressed”.

`N[C@H](CO)C(=O)O` [D-serine]: in data set [1], the “blood glucose level and insulin resistance in insulin tolerance testing (ITT)” value is “lower blood glucose levels and lower insulin resistance compared to the control group”. Also, the “increase in casual blood glucose level” value in data set [2] is listed as “suppressed”. Further, the “casual blood glucose level” value in data set [2] (setting [8]) is listed as “remained at a low levels”. Moreover, the “fasting blood glucose level” value in data set [3] (setting [9]) was “remained at a low levels”. In addition, the “death of animals (toxicity)” value in data set [6] is on record as “one individual died within 18 weeks”.

Turning to `Cc1nc2n(c(=O)c1CCN1CCC(c3noc4cc(F)ccc34)CC1)CCCC2` [Risperidone, reference compound], the “blood glucose level in insulin tolerance testing (ITT)” value in data set [1] (Risperidone aqueous solution in drinking water, left kidney removed, STZ 50 mg/kg B6 mice) is “lower blood glucose levels compared to the control group”. Further, in data set [7], the “blood glucose level in intra-peritoneal glucose tolerance testing (IPGTT)” value is “lower values for blood glucose level than the control group”. In addition, the “casual blood glucose level” value in data set [2] (Risperidone in drinking water, after STZ (2, 6 weeks)) was “remained at low levels in the Risperidone group compared to the control group”. Also, the “fasting blood glucose level” value in data set [3] (Risperidone in drinking water, after STZ (2 weeks)) was “remained at low levels in the Risperidone group compared to the control”.
